Experiments:
[1] = format: physicochemical; conditions: pH 7.4
Description: The distribution coefficient (log D7.4) was determined by the shake flask method. In brief, γ-[^18F]-glucose folate was dissolved in a mixture of phosphate buffer (500 μL, pH 7.4) and n-octanol ([…]) at 20° C. The sample was equilibrated for 15 min in an over-head shaker. The two phases were separated by centrifugation (3 min, 5000 rpm) and 50 μL aliquots were taken from each layer and counted for radioactivity in a γ-counter. The partition coefficient is expressed as the ratio of radioactivity (cpm) in the octanol phase to the one in the PBS phase represents the mean±standard deviation of eight measurements.

[2] = test system: KB tumor xenografts; assay: PET imaging of KB tumor xenografts; format: in vivo; conditions: for PET images of KB tumor xenografts: 75-105 min p.i.; for specificity of uptake (blocking with folic acid): PET, excess folic acid 10 min prior to radiotracer
Description: PET experiments were performed with Explore VISTA PET/CT tomograph (GE), which provides an ultrahigh resolution of less than 0.9 mm. Animals were lightly restrained and injected with 10-14 MBq of γ-[^18F]-glucose folate (100-150 μL per injection) via a lateral tail vein. […] Animals were anesthetized with isoflurane in an air/oxygen mixture. The PET scans were acquired from 75-105 min post-injection. The fused datasets of PET and CT were analyzed with Amira (Version 4) postprocessing software.

[3] = biological target: T1, folate receptor (Homo sapiens, UniProt P15328); assay: In vitro binding affinity assay, displacement of 3H-folic acid on KB cells; conditions: 3H-folic acid 0.82 nM, 4° C., 30 min; for IC50: three independent experiments, read-out: mean inhibitory concentration of 50% (IC50 value)
T1 construct: endogenous in cells; host or cells: KB cells (human cervical carcinoma), whole-cell suspension
T1 sequence (P15328 25-234): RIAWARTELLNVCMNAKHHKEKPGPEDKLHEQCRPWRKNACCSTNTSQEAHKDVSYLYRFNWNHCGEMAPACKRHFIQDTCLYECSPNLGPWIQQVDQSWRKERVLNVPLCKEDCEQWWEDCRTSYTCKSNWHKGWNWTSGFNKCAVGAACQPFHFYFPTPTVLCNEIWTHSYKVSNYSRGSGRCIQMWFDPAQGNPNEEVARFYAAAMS
Description: Binding affinity assays were performed with KB cells derived from human cervical carcinoma, where the folate receptor is overexpressed. The cells were cultured as monolayers in 75 cm^2 flasks at 37° C. in a humidified atmosphere (7.5% CO2). The cells were kept in a special folate-deficient RPMI 1640 medium (FFRPMI 1640; Cell Culture Technologies) supplemented with heat-inactivated fetal calf serum (10%), L-glutamine, penicillin (100 IU/mL), and streptomycin ([…]). The fetal calf serum was the only source of folate in the medium, which is reported to provide a final folate concentration of about 3 nmol/mL, which is at the low end of the physiologic serum concentration in humans.
A cell suspension in pure FFRPMI 1640 medium (no additives, ice-cold) was added into 1.5 mL vials (7000 cells in 240 μL). […] After incubation, the suspension was centrifuged at 3500 rpm and 4° C. for 5 min and the supernatant was removed. By addition of 0.5 mL of 1 N NaOH, the cell pellets were resuspended and lysed at the same time. The lysed cells were stirred in a vortex mixer and transferred into scintillation tubes containing 4 mL of scintillation cocktail (Ultima Gold; Perkin Elmer). Radioactivity was measured using a β-counter (LS6500; Beckman), and the inhibitory concentrations of 50% were determined from displacement curves using Graph Pad Prism 4.0 software.

log D7.4 [1]	Ki [3]	IC50 [3]	Compound	PET images of KB tumor xenografts [2]	specificity of uptake (blocking with folic acid) [2]
−4.20±0.06			Nc1nc2ncc(CNc3ccc(C(=O)NC(CCC(=O)O)C(=O)NC(Cc4cn(C5OC(CO)C(O)C(O)C5[18F])nn4)C(=O)O)cc3)nc2c(=O)[nH]1 (stereo not drawn) [α-[^18F]-glucose folate]	excellent images of KB tumor xenografts	highly specific and blocked by natural folic acid
	0.7 ± 0.2 nM	1.4 ± 0.2 nM	Nc1nc2ncc(CNc3ccc(C(=O)NC(CCC(=O)O)C(=O)NC(Cc4cn(C5OC(CO)C(O)C(O)C5F)nn4)C(=O)O)cc3)nc2c(=O)[nH]1 (stereo not drawn) [α-glucose folate, α-[^19F]-Glucose Folate]		
−4.21±0.14			Nc1nc2ncc(CNc3ccc(C(=O)NC(CCC(=O)NC(Cc4cn(C5OC(CO)C(O)C(O)C5[18F])nn4)C(=O)O)C(=O)O)cc3)nc2c(=O)[nH]1 (stereo not shown) [γ-[^18F]-glucose folate]	excellent images of KB tumor xenografts	highly specific and blocked by natural folic acid
	0.8 ± 0.1 nM	1.6 ± 0.1 nM	Nc1nc2ncc(CNc3ccc(C(=O)NC(CCC(=O)NC(Cc4cn(C5OC(CO)C(O)C(O)C5F)nn4)C(=O)O)C(=O)O)cc3)nc2c(=O)[nH]1 (stereo not shown) [γ-glucose folate, γ-[^19F]-Glucose Folate]		

From patent US10973936B2, “18F-saccharide-folates” (MERCK & CIE, priority 2011, dated 2021)
